Non-standard residues stand in square brackets, D forms with d. Residues, ends and D or L forms follow the SMILES beside them. *: point of attachment. 2Nal = N[C@@H](Cc1ccc2ccccc2c1)C(=O)O; Boc = CC(C)(C)OC(=O)*
Key:
Format in all cases: cell-based
gastrin receptor [1] = biological target: T1, gastrin receptor (Cavia porcellus, UniProt H0VZC5); test: guinea-pig fundus assay for gastrin activity (stomach muscle strips); settings: 10^-8 M devazepide present, 60 minute equilibration, agonist e.g. pentagastrin, standard errors less than 5%
T1 construct: Strips of muscle (approximately 2.5 cm by 1 cm) are removed from the proximal area of the stomach; from tissue; host or cells: guinea-pig proximal stomach (fundus) muscle strips
T1 sequence (H0VZC5 1-426): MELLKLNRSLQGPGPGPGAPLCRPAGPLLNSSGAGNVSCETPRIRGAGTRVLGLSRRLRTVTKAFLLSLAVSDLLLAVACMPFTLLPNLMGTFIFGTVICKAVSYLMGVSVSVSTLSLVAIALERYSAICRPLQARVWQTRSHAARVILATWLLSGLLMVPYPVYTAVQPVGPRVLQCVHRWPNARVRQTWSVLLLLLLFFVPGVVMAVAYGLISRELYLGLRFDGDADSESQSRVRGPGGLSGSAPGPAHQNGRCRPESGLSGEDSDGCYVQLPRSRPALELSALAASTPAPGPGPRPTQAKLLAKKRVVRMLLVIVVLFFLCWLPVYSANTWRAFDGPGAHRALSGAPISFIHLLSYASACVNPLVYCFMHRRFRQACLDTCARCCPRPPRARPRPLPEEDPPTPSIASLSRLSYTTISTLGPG
Procedure: The compounds were assayed for gastrin activity using the mouse stomach assay as described by Black, J. W. and Shankley, N. P., Br. J. Pharmacol., 86, 571-579, (1985), and also in the guinea-pig fundus assay, as follows:
The stomach is removed from a male Dunkin-Hartley guinea-pig (250-500 g), and Krebs solution is injected through a hypodermic needle under the top stomach muscle layer. The composition (mM) of the Krebs solution is as follows: Na^+ 143, K^+ 5.9, Ca^2+ 2.5, Mg^2+ 1.2, Cl^- 128, H2 PO4^- 2.2, HCO3^- 24.9, SO4^2- 1.2, dextrose 10. Strips of muscle (approximately 2.5 cm by 1 cm) are removed from the proximal area of the stomach (one from each side) and tied with cotton thread to isotonic transducers under an initial loading tension of 0.35 g.
The preparation is immersed in 20 mls of Krebs solution containing 10^-8 M devazepide (25 μl 2×10^-3 M devazepide/100% DMF solution in 5 dm^3 Krebs) and gassed with 95% O2 /5% CO2. The function of the devazepide is to block possible effects at CCK receptors present in the tissue.
The preparation is washed twice over a 60 minute period then 10 mM KCl is added. At 90 minutes, test compounds (ie. potential antagonists) are added and a further 60 minute equilibration period allowed. After this time, cumulative agonist (e.g. pentagastrin) dose-response curves are constructed.

gastrin receptor [2] = biological target: T2, gastrin receptor (Mus musculus, UniProt P56481); test: mouse stomach assay for gastrin activity (isolated stomach, acid secretion); settings: for pKB mouse stomach: isolated mouse stomach assay, gastrin antagonism, standard errors less than 5%; for Acid seretion at 10^-5 M test compound, relative to pentagastrin (%): mouse stomach, NS = not significant
T2 construct: assayed for gastrin activity using the mouse stomach assay; from tissue; host or cells: isolated mouse stomach
T2 sequence (P56481 1-453): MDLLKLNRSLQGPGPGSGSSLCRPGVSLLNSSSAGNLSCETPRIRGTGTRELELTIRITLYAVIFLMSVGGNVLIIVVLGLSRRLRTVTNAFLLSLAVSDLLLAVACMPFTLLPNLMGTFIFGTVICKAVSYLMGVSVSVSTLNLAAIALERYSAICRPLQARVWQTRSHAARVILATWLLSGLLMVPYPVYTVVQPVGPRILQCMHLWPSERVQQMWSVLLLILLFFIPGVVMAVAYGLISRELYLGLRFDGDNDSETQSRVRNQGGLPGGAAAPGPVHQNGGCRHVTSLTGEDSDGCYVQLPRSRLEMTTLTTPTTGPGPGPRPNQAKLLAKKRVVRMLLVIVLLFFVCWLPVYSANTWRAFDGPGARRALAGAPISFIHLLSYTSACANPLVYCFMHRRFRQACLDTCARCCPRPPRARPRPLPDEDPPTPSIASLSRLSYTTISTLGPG
Procedure: The compounds were assayed for gastrin activity using the mouse stomach assay as described by Black, J. W. and Shankley, N. P., Br. J. Pharmacol., 86, 571-579, (1985), and also in the guinea-pig fundus assay, as follows: […]

[3] = biological target: T3, cholecystokinin receptors (Cavia porcellus, UniProt Q63931); test: CCK-antagonist activity in isolated guinea-pig gall-bladder strip preparations; settings: guinea-pig gall-bladder strips; CCK-8 as agonist; test compound incubated for 60 minutes; standard errors less than 5%
T3 construct: Isolated, strip preparations were prepared from gall-bladders removed from male Dunkin-Hartley guinea-pigs; from tissue; host or cells: guinea-pig gall-bladder strips
T3 sequence (Q63931 1-430): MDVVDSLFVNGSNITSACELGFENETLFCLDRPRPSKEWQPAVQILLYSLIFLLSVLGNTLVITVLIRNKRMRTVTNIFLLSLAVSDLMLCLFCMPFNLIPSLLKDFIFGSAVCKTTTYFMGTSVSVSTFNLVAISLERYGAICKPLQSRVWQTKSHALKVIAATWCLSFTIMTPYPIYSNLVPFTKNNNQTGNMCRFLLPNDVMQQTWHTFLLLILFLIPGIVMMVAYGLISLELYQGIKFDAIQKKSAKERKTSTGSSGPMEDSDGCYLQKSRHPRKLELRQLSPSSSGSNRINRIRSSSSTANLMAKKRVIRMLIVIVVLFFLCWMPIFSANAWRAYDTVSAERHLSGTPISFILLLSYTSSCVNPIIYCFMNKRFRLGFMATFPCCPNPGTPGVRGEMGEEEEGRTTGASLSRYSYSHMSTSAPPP
Procedure: The compounds of the invention were also assayed for CCK-antagonist activity as follows:
Isolated, strip preparations were prepared from gall-bladders removed from male Dunkin-Hartley guinea-pigs (250-500 g body weight) according to the method of La Morte, W. W., et al., J.P.E.T., 217, (3), 638-644 (1981).
The complete gall-bladder is removed and opened along the longitudinal axis. Strips measuring 3 mm in the longitudinal axis and 1 mm in the transverse axis are cut and then tied with cotton to stainless steel wires. The preparation is connected to a GRASS FTO3 isometric transducer under an initial loading tension of 1 g and is immersed in 20 mls of Krebs solution maintained at 37° C. and gassed with 95% O2 /5% CO2. The Krebs solution is as detailed above in connection with the fundus assay, except that the Ca^2+ concentration is decreased to 0.5 mM. After 30 mins the preparation is washed. Drug addition begins after an initial 90 min stabilisation period. Responses are measured as changes in tension from that immediately prior to any drug addition. Single cumulative agonist concentration-effect curves, using CCK-8 as agonist, are obtained on each preparation in the absence and presence of test compound which has been incubated for 60 minutes. The antagonist activity of the test compound is estimated and expressed as the negative logarithm (base 10) of the equilibrium dissociation constants (pK8) using the modifications of standard competitive analysis described by Black et al., Br. J. Pharmacol.,86,571-579, (1985) and Shankley et al., Br. J. Pharmacol.,94,264-274 (1988).

Compound | pKB (gastrin receptor [1]) | pKB mouse stomach (gastrin receptor [2]) | Acid seretion at 10^-5 M test compound, relative to pentagastrin (%) (gastrin receptor [2]) | pKB [3] | Kb (gastrin receptor [1]) [nM] | Kb [3] [nM]
CC(C)(C)OC(=O)N[C@@H](Cc1c[nH]c2ccccc12)C(=O)N[C@@H](Cc1ccc2ccccc2c1)C(=O)N[C@@H](CC(=O)O)C(=O)N[C@@H]1CCC[C@@H]1c1ccccc1 (single isomer, unassigned; diastereomer 2) [Example 34, N-t-Butyloxycarbonyl-L-tryptophyl-L-3-(2-naphthyl)alanyl-L-aspartyl-cis-2-phenylcyclopentylamide (diastereomer 2)] | 5.8 | 6.5 | 40 | 6.9 | – | –
CC(C)(C)OC(=O)N[C@@H](Cc1c[nH]c2ccccc12)C(=O)N[C@@H](Cc1ccc2ccccc2c1)C(=O)N[C@@H](CC(=O)O)C(=O)NCCc1ccc(Cl)cc1 [Example 8, N-t-Butyloxycarbonyl-L-tryptophyl-L-3-(2-naphthyl)alanyl-L-aspartyl-(4-chlorophenethyl)amide] | 5.0 | 5.9 | 28 | – | – | –
COc1ccc(CNC(=O)[C@H](CC(=O)O)NC(=O)[C@H](Cc2ccc3ccccc3c2)NC(=O)[C@H](Cc2c[nH]c3ccccc23)NC(=O)OC(C)(C)C)cc1 [Example 51] | 5.7 | – | – | 7.0 | – | –
CC(C)(C)OC(=O)N[C@@H](Cc1c[nH]c2ccccc12)C(=O)N[C@@H](Cc1ccc2ccccc2c1)C(=O)N[C@@H](CC(=O)O)C(=O)NCCc1ccc(S(N)(=O)=O)cc1 [Example 49, N-t-Butyloxycarbonyl-L-tryptophyl-L-3-(2-naphthyl)alanyl-L-aspartyl-4-sulphonamidophenethylamide] | 6.2 | – | – | 6.8 | – | –
N-t-Butyloxycarbonyl-L-tryptophyl-L-3-(2-naphthyl)alanyl-L-aspartyl-1-indanylamide [Example 25] | 5.7 | – | – | 6.3 | – | –
CC(C)(C)OC(=O)N[C@@H](Cc1c[nH]c2ccccc12)C(=O)N[C@@H](Cc1ccc2ccccc2c1)C(=O)N[C@H](CC(=O)O)C(=O)N[C@@H](Cc1ccccc1)C(N)=O [Example 12, N-t-Butyloxycarbonyl-L-tryptophyl-L-3-(2-naphthyl)alanyl-D-aspartyl-L-phenylalaninamide] (Boc-W[2Nal][dD]F-NH2) | – | – | – | – | 3160 | 39.8
CC(C)(C)OC(=O)N[C@@H](Cc1c[nH]c2ccccc12)C(=O)N[C@@H](Cc1ccc2ccccc2c1)C(=O)N[C@@H](CC(=O)O)C(=O)N1CCc2ccccc2C1 [Example 26, N-[N-t-Butyloxycarbonyl-L-tryptophyl-L-3-(2-naphthyl)alanyl-L-aspartyl]-1,2,3,4-tetrahydroisoquinolinamide] | 5.5 | – | – | 6.6 | – | –
CC(C)(C)OC(=O)N[C@@H](Cc1c[nH]c2ccccc12)C(=O)N[C@@H](Cc1ccc2ccccc2c1)C(=O)N[C@@H](CC(=O)O)C(=O)NCCc1ccncc1 [Example 44, N-t-Butyloxycarbonyl-L-tryptophyl-L-3-(2-naphthyl)alanyl-L-aspartyl-2-(4-pyridyl)ethylamide] | 6.0 | – | – | 6.2 | – | –
CN(C)C(=O)[C@H](Cc1ccccc1)NC(=O)[C@H](CC(=O)O)NC(=O)[C@H](Cc1ccc2ccccc2c1)NC(=O)[C@H](Cc1c[nH]c2ccccc12)NC(=O)OC(C)(C)C [Example 6, N-t-Butyloxycarbonyl-L-tryptophyl-L-3-(2-naphthyl)alanyl-L-aspartyl-L-phenylalanyl-(N,Ndimethyl)amide] (Boc-W[2Nal]DF-NMe2) | 5.6 | 5.6 | 22 | – | – | –
CC(C)(C)CCNC(=O)[C@H](CC(=O)O)NC(=O)[C@H](Cc1ccc2ccccc2c1)NC(=O)[C@H](Cc1c[nH]c2ccccc12)NC(=O)OC(C)(C)C [Example 64, N-t-Butyloxycarbonyl-L-tryptophyl-L-3-(2-naphthyl)alanyl-L-aspartyl-3,3-dimethylbutylamide] | 5.9 | – | – | 7.0 | – | –
N-t-Butyloxycarbonyl-L-tryptophyl-L-3-(2-naphthyl)alanyl-L-aspartyl-3,4-dimethoxyphenethylamide [Example 41] | 6.0 | – | – | 6.5 | – | –
N-t-Butyloxycarbonyl-L-tryptophyl-L-3-(2-naphthyl)alanyl-L-aspartyl-4-hydroxyphenethylamide [Example 38] | 5.9 | – | – | 7.1 | – | –
N-t-Butyloxycarbonyl-L-tryptophyl-L-3-(2-naphthyl)alanyl-L-aspartyl-α-2-phenethylester [Example 63] | 5.9 | – | – | 7.0 | – | –
CC(C)(C)OC(=O)N[C@@H](Cc1c[nH]c2ccccc12)C(=O)N[C@@H](Cc1ccc2ccccc2c1)C(=O)N[C@@H](CC(=O)O)C(=O)NCCc1ccc([N+](=O)[O-])cc1 [Example 30, N-t-Butyloxycarbonyl-L-tryptophyl-L-3-(2-naphthyl)alanyl-L-aspartyl-4-nitrophenethylamide] | 5.7 | – | – | 6.6 | – | –
Cc1cccc(CCNC(=O)[C@H](CC(=O)O)NC(=O)[C@H](Cc2ccc3ccccc3c2)NC(=O)[C@H](Cc2c[nH]c3ccccc23)NC(=O)OC(C)(C)C)c1 [Example 39, N-t-Butyloxycarbonyl-L-tryptophyl-L-3-(2-naphthyl)alanyl-L-aspartyl-3-methylphenethylamide] | 5.4 | – | – | 6.7 | – | –

From US5486597A, “Tetrapeptide derivatives and analogues” (James Black Foundation Limited, priority 1990, dated 1996)
